Structures can show the parent of a compound that is named as a salt.

In one assay the target is T1, PPAR-α (Homo sapiens, UniProt Q07869).
T1 construct: expressed in transfected cells; host or cells: CV-1 (African green monkey kidney)
T1 sequence (Q07869 167-468): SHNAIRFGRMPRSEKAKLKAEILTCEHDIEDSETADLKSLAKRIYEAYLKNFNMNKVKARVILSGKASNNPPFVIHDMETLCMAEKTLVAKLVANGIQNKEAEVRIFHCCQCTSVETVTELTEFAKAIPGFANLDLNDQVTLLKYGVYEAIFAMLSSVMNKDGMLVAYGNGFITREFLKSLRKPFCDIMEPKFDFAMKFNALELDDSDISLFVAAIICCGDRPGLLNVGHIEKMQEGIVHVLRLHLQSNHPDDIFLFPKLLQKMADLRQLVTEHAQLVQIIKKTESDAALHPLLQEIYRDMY
Description: Measurement of PPAR-α activity (GAL4 luciferase reporter assay in CV-1 cells). It counts as cell-based. The note with it: 100(A/B): A = maximum PPAR-α activity of test compound at 3, 10, 30 and 100 μM, B = activity of the compound of WO/2011/058154 at 100 μM, 18 to 20 hours. As for the experimental part:
The PPAR-α activity was measured according to the published article (THE JOURNAL OF BIOLOGICAL CHEMISTRY Vol. 270, No 0.22: 12953-12956, 1995).
Plasmids used for the PPAR-α activity measurement were constructed as follows. A luciferase expression plasmid (UAS×5-TK-Luc) used was obtained by introducing a sequence in which five yeast GAL4-binding sequences are linked in tandem into a portion upstream of a thymidine kinase promoter of pTAL-Luc (Takara Bio Inc., 6252-1). A PPAR-α receptor expression plasmid (hGR-GAL4-hPPARα) used was obtained by introducing a human GR N-terminal region (1-76aa), a yeast GAL4 DNA-binding region (1-147aa), and a PPARα ligand-binding region (167-468aa) between Not I and Sal I sites of pExchange-1 Core Vector (Invitrogen, 211176).
A reporter assay was conducted by the following method using African green monkey kidney-derived CV-1 cells. The CV-1 cells were seeded in a 96-well plate (Thermo Fisher Scientific K.K., 4938) at 2×10^4 cells/well by using a 10% FBS-containing DMEM (NACALAI TESQUE, INC., 0845874) medium. After culturing under conditions of 37° C. and 5% CO2 for 2 hours, the cells were transfected with the plasmids. The transfection was conducted by using Lipofectamine LTX (Invitrogen, 15338-100) according to the attached manual. The plasmid solution was prepared by adding a mixture solution of the luciferase expression plasmid and the PPAR-α receptor expression plasmid to OPTI-MEM I (Invitrogen, 11058-021). After the transfection, the test compound was added, and the cells were cultured at 37° C. in the presence of 5% CO2 for 18 to 20 hours. After the culturing, the luciferase activity was measured with Luminescensor JNR (ATTO) by using Bright-Glo (Promega, E2620).
The fold induction of PPAR-α by each test compound was calculated by the following method. A relative fold induction (%) of PPAR-α by the test compound was defined as 100 (A/B), where A represents the maximum value of the PPAR-α activities of the test compound at 3 μM, 10 μM, 30 μM, and 100 μM, and B represents the PPAR-α activity of the compound of WO/2011/058154 at 100 μM.
(A reporter such as luciferase makes a cellular process visible.)
Take `NC(=O)C1CC[C@@H](C(=O)O)N1C(=O)c1cccc(COc2ccc(-c3cc(F)c(F)c4ccoc34)cc2)c1` (single isomer, unassigned) [Example 4, (2S,5R) or (2S,5S)-5-Carbamoyl-1-[3-[[4-(4,5-difluorobenzofuran-7-yl)phenoxy]methyl]benzoyl]pyrrolidine-2-carboxylic Acid]: the “Relative fold induction (%) of PPAR α” value is 10%.

As to `CSc1cc(F)c(F)cc1-c1ccc(OCc2cccc(C(=O)N3C(C(N)=O)CC[C@H]3C(=O)O)c2)cc1` (single isomer, unassigned) [Example 58, (2S,5S) or (2S,5R)-5-Carbamoyl-1-[3-[[4-(4,5-difluoro-2-methylsulfanyl-phenyl)phenoxy]methyl]benzoyl]pyrrolidine-2-carboxylic Acid], the “Relative fold induction (%) of PPAR α” value was determined as 7.8%.

The same assay, now with this note: 100(A/B): A = maximum PPAR-α activity of test compound at 3, 10, 30 and 100 μM, B = activity of the compound of WO/2011/058154 at 100 μM, 18 to 20 hours, read-out: Relative fold induction (%) of PPAR α.
For `CSc1cc(F)c(F)cc1-c1ccc(OCc2cccc(C(=O)N(CC(=O)O)CC3CCCNC3)c2)cc1` (centres unmarked) [Example 50, 2-[[3-[[4-(4,5-Difluoro-2-methylsulfanyl-phenyl)phenoxy]methyl]benzoyl]-(3-piperidylmethyl)amino]acetic Acid Trifluoroacetate], the Emax was found to be 4.8%.

Consider `CC(C)(O)CCN(CC(=O)O)C(=O)c1cccc(COc2ccc(-c3cc(F)c(F)c4ccoc34)cc2)c1` [Example 18, 2-[[3-[[4-(4,5-Difluorobenzofuran-7-yl)phenoxy]methyl]benzoyl]-(3-hydroxy-3-methyl-butyl)amino]acetic Acid], for which the Emax came to 23%.

On to `CSc1cc(F)c(F)cc1-c1ccc(OCc2cccc(C(=O)N(CC(=O)O)Cc3ccnn3C)c2)cc1` [Example 55, 2-[[3-[[4-(4,5-Difluoro-2-methylsulfanyl-phenyl)phenoxy]methyl]benzoyl]-[(2-methylpyrazol-3-yl)methyl]amino]acetic Acid], for which the Emax turned out to be 11%.

For the compound `CSc1cc(F)c(F)cc1-c1ccc(OCc2cccc(C(=O)N(CCC#N)CC(=O)O)c2)cc1` [Example 7, 2-[2-Cyanoethyl-[3-[[4-(4,5-difluoro-2-methylsulfanyl-phenyl)phenoxy]methyl]benzoyl]amino]acetic Acid], the Emax came to 16%.

Regarding `CC(=O)N1CCC(CN(CC(=O)O)C(=O)c2cccc(COc3ccc(-c4cc(F)c(F)c5ccoc45)cc3)c2)CC1` [Example 81, 2-[(1-Acetyl-4-piperidyl)methyl-[3-[[4-(4,5-difluorobenzofuran-7-yl)phenoxy]methyl]benzoyl]amino]acetic Acid], the Emax was found to be 6.4%.

Take `CCN(CC)CCN(CC(=O)O)C(=O)c1cccc(COc2ccc(-c3cc(F)c(F)cc3SC)cc2)c1` [Example 24, 2-[2-Diethylaminoethyl-[3-[[4-(4,5-difluoro-2-methylsulfanyl-phenyl)phenoxy]methyl]benzoyl]amino]acetic Acid Trifluoroacetate]: the Emax was determined as 13%.

For `CSc1cc(F)c(F)cc1-c1ccc(OCc2cccc(C(=O)N(CC(=O)O)Cc3cccnc3)c2)cc1` [Example 39, 2-[[3-[[4-(4,5-Difluoro-2-methylsulfanyl-phenyl)phenoxy]methyl]benzoyl]-(3-pyridylmethyl)amino]acetic Acid Trifluoroacetate], the Emax turned out to be 22%.

Turning to `CSc1cc(F)c(F)cc1-c1ccc(OCc2cccc(C(=O)N(CC(=O)O)Cc3cnco3)c2)cc1` [Example 47, 2-[[3-[[4-(4,5-Difluoro-2-methylsulfanyl-phenyl)phenoxy]methyl]benzoyl]-(oxazol-5-ylmethyl)amino]acetic Acid], the Emax worked out at 7.3%.

As to `O=C(O)CN(CC1CCOCC1)C(=O)c1cccc(COc2ccc(-c3cc(F)c(F)c4ccoc34)cc2)c1` [Example 9, 2-[[3-[[4-(4,5-Difluorobenzofuran-7-yl)phenoxy]methyl]benzoyl]-(tetrahydropyran-4-ylmethyl)amino]acetic Acid], the Emax amounted to 24%.

Consider `CSc1cc(F)c(F)cc1-c1ccc(OCc2cccc(C(=O)N(CCS(=O)(=O)N(C)C)CC(=O)O)c2)cc1` [Example 59, 2-[[3-[[4-(4,5-Difluoro-2-methylsulfanyl-phenyl)phenoxy]methyl]benzoyl]-[2-(dimethylsulfamoyl)ethyl]amino]acetic Acid], for which the Emax turned out to be 10%.

As to `CSc1cc(F)c(F)cc1-c1ccc(OCc2cccc(C(=O)N(CCS(C)(=O)=O)CC(=O)O)c2)cc1` [Example 31, 2-[[3-[[4-(4,5-Difluoro-2-methylsulfanyl-phenyl)phenoxy]methyl]benzoyl]-(2-methylsulfonylethyl)amino]acetic Acid], the Emax was 8.4%.

Regarding `CS(=O)(=O)NCCN(CC(=O)O)C(=O)c1cccc(COc2ccc(-c3cc(F)c(F)c4ccoc34)cc2)c1` [Example 16, 2-[[3-[[4-(4,5-Difluorobenzofuran-7-yl)phenoxy]methyl]benzoyl]-[2-(methanesulfonamido)ethyl]amino]acetic Acid], the Emax was 12%.

Take `CSc1cc(F)c(F)cc1-c1ccc(OCc2cccc(C(=O)N(CC(=O)O)Cc3nc(C)no3)c2)cc1` [Example 68, 2-[[3-[[4-(4,5-Difluoro-2-methylsulfanyl-phenyl)phenoxy]methyl]benzoyl]-[(3-methyl-1,2,4-oxadiazol-5-yl)methyl]amino]acetic Acid]: the Emax worked out at 35%.

Take `CSc1cc(F)c(F)cc1-c1ccc(OCc2cccc(C(=O)N(CC(=O)O)Cc3ccn[nH]3)c2)cc1` [Example 54, 2-[[3-[[4-(4,5-Difluoro-2-methylsulfanyl-phenyl)phenoxy]methyl]benzoyl]-(1H-pyrazol-5-ylmethyl)amino]acetic Acid]: the Emax stood at 8.7%.

Regarding `CCN1CCC(CN(CC(=O)O)C(=O)c2cccc(COc3ccc(-c4cc(F)c(F)cc4SC)cc3)c2)CC1` [Example 38, 2-[[3-[[4-(4,5-Difluoro-2-methylsulfanyl-phenyl)phenoxy]methyl]benzoyl]-[(1-ethyl-4-piperidyl)methyl]amino]acetic Acid Trifluoroacetate], the Emax was determined as 8.9%.

Consider `CSc1cc(F)c(F)cc1-c1ccc(OCc2cccc(C(=O)N(CC(=O)O)Cc3ccncn3)c2)cc1` [Example 53, 2-[[3-[[4-(4,5-Difluoro-2-methylsulfanyl-phenyl)phenoxy]methyl]benzoyl]-(pyrimidin-4-ylmethyl)amino]acetic Acid], for which the Emax was determined as 8.2%.

Regarding `CSc1cc(F)c(F)cc1-c1ccc(OCc2cccc(C(=O)N(CC(=O)O)Cc3cscn3)c2)cc1` [Example 71, 2-[[3-[[4-(4,5-Difluoro-2-methylsulfanyl-phenyl)phenoxy]methyl]benzoyl]-(thiazol-4-ylmethyl)amino]acetic Acid], the Emax came out at 20%.

In the case of `NC(=O)CCN(CC(=O)O)C(=O)c1cccc(COc2ccc(-c3cc(F)c(F)c4ccoc34)cc2)c1` [Example 79, 2-[(3-Amino-3-oxo-propyl)-[3-[[4-(4,5-difluorobenzofuran-7-yl)phenoxy]methyl]benzoyl]amino]acetic Acid], the Emax is 7.1%.

Consider `CSc1cc(F)c(F)cc1-c1ccc(OCc2cccc(C(=O)N(CCCN(C)C)CC(=O)O)c2)cc1` [Example 26, 2-[[3-[[4-(4,5-Difluoro-2-methylsulfanyl-phenyl)phenoxy]methyl]benzoyl]-[3-(dimethylamino)propyl]amino]acetic Acid Trifluoroacetate], for which the Emax came to 11%.

In the case of `NC(=O)CN(CC(=O)O)C(=O)c1cccc(COc2ccc(-c3cc(F)c(F)c4ccoc34)cc2)c1` [Example 1, 2-[(2-Amino-2-oxo-ethyl)-[3-[[4-(4,5-difluorobenzofuran-7-yl)phenoxy]methyl]benzoyl]amino]acetic Acid], the Emax is 12%.

On to `O=C(O)CN(CC1CCNCC1)C(=O)c1cccc(COc2ccc(-c3cc(F)c(F)c4ccoc34)cc2)c1` [Example 12, 2-[[3-[[4-(4,5-Difluorobenzofuran-7-yl)phenoxy]methyl]benzoyl]-(4-piperidylmethyl)amino]acetic Acid Trifluoroacetate], for which the Emax came out at 4.7%.

These data come from patent publication US20160046592A1, “PHARMACEUTICAL COMPOSITION FOR THE TREATMENT OF DIABETES” (Ajinomoto Co., Inc., priority 2013, published 2016).
